Laboratory results published in patent US20160243151A1, “CO-RELEASING COMPOUNDS & FORMULATIONS THEREOF USEFUL FOR INDUCING MITOCHONDRIAL BIOGENESIS AND TISSUE REPAIR” (UNIVERSITÄT ZÜRICH, priority 2013, published 2016).

Assays:
Hepa 1-6 cells [1] = test: NOS2 and IL10 mRNA in cytomix-exposed Hepa 1-6 cells; assay type: cell-based, mouse; details: cytomix 24 h
Experimental: Mouse hepatoma cells (ATCC, CRL-1830) were grown to near confluence according to the manufacturer's instructions and then exposed to cytomix (a) for 24 hours. At the time of cytomix exposure, cells were treated with B12-CORM2 (25 μM) (b) or the other compounds shown in panel (A). […] (B) shown the relative mRNA levels for the pro-inflammatory enzyme NOS2 (black) and the anti-inflammatory cytokine interleukin 10 (IL10) (white), as measured by real time RT-PCR. Control and cytomix-treated cells were harvested, disrupted, and total RNA extracted. Both gene products increased in response to cytomix, but B12-CORM2 reduced NOS2 and enhanced IL10 expression. […] Moreover, administration of the low molecular weight anti-oxidant N-acetyl cysteine (NAC, 5 mM) (d) abrogates the anti-inflammatory effect of the Re-based CORM according to the invention in accordance with the proposed redox mechanism of action. Finally, the NF-kB inhibitor BAY11 (BAY 11-7082, Santa Cruz) (e) fully blocks the cytomix effect on NOS2, but only partially reduces the effect on IL-10, indicating the NF-kB-independent mechanism of action of B12-CORM2 (*, P<0.05 compared with control cells; #, P<0.05 compared with cytomix treatment). […]
Inflammation assessment. The mRNA levels for the pro-inflammatory enzyme NOS2 and the anti-inflammatory cytokine interleukin 10 (IL10) were measured by real time RT-PCR.

Hepa 1-6 cells [2] = test: MTT reduction assay in Hepa 1-6 cells; assay type: cell-based, mouse; details: control and cytomix-exposed cells, 24 h
Experimental: Mouse hepatoma cells (ATCC, CRL-1830) were grown to near confluence according to the manufacturer's instructions and then exposed to cytomix (a) for 24 hours. At the time of cytomix exposure, cells were treated with B12-CORM2 (25 μM) (b) or the other compounds shown in panel (A). […] (B) shown the relative mRNA levels for the pro-inflammatory enzyme NOS2 (black) and the anti-inflammatory cytokine interleukin 10 (IL10) (white), as measured by real time RT-PCR. Control and cytomix-treated cells were harvested, disrupted, and total RNA extracted. Both gene products increased in response to cytomix, but B12-CORM2 reduced NOS2 and enhanced IL10 expression. […]
Metabolic capacity assessment: The metabolic state of Hepa 1-6 liver cells was measured using the MTT (3-(4,5-dimethylthiazol-2-yl)-2,5-diphenyltetrazolium bromide, a yellow tetrazole) reduction assay. MTT is reduced to the purple formazan by living cells, which is detected colorimetrically (at 570 nm). […]
Cytomix damages and kills liver cells such as Hepa 1-6 cells. The metabolic state of Hepa 1-6 liver cells were measured using the MTT reduction assay. MTT (3-(4,5-dimethylthiazol-2-yl)-2,5-diphenyltetrazolium bromide, a yellow tetrazole) is reduced to the purple formazan by living cells, which is detected colorimetrically. […]

E14 ESC embryoid bodies = test: beating embryoid body out-growths; assay type: cell-based, mouse; details: MitoQ given in the initial five days of differentiation
Experimental: Culture and differentiation of murine E14 cells, murine D3 cells and human MEL1 cells. These cell lines were independently grown at 37° C. in 5% CO2 on gelatin-coated substrates prepared by coating plastic tissue culture flasks with a 0.1% gelatin solution. Cells were maintained in a standard medium (Iscove's Modified Dulbecco's Medium, Invitrogen) plus 15% newborn calf serum, non-essential amino acids, and nucleosides stock. Leukemia inhibitory factor (LIF) (Chemicon) at a final concentration of 1,000 U/ml and 100 μM 2-mercaptoethanol were added to standard medium to prevent differentiation. For the induction of differentiation the hanging drop method such as described in Keller, 1995, Curr. Opin. Cell. Biol., 7(6), 862-9 was used. E14 cells were cultivated without LIF in hanging drops to form embryoid bodies (EBs) ([…] cells per drop) for 2 days, then kept in suspension for 2 days, and finally plated on gelatin-coated, 96 well, single-culture dishes or single well slides. […] Adhered EBs monitored daily under an inverted microscope for spontaneously beating foci from day 3 onward until day 13. In total, 3×96 EBs from E14 cells were monitored. To confirm that the increase in contracting EBs is HO-1/CO-mediated, E14 cells were transduced with Sh-HO1 vector or empty vector, differentiated as above and monitored by fluorescence microscopy. […]

H9c2 cells [3] = test: Western blot densitometry in H9c2 cells exposed to DOX; assay type: cell-based, rat; details: +DOX (0.5 μg/ml), 3 days of differentiation
Experimental: (§1) Cell culture and treatments. H9c2 cells (embryonic rat cardiomyocytes; ATCC) were maintained in DMEM (Invitrogen) supplemented with 10% fetal bovine serum (Invitrogen) and 2 mmol/l 1-glutamine. Cells were plated on 35- or 100-mm dishes in DMEM with 2% FCS for differentiation. Doxorubicin (DOX) was added to complete medium and incubated at 37° C. for different intervals at a concentration (0.5 μg/ml) similar to the plasma concentrations encountered in clinical use. Some cells were exposed to B12-CORM2 (25 μM) with or without DOX. Cells collected after 3 days of differentiation.
Differentiation assessment. Western blot analysis and densitometry were performed relative to tubulin for alpha-actinin as a specific marker of cardiomyocyte differentiation and intactness of the contractile apparatus.
Mitochondrial integrity and density assessment. Western blot analysis and densitometry were performed relative to tubulin for citrate synthase.
DOX and/or B12-CORM2 were added complete medium on day 1.

H9c2 cells [4] = test: cell survival by Trypan blue exclusion in H9c2 cells exposed to DOX; assay type: cell-based, rat; details: +DOX (0.5 μg/ml)
Experimental: as §1
Cell survival. Cell survival was measured by Trypan blue exclusion.
DOX and/or B12-CORM2 were added complete medium on day 1. […] Mitochondrial protection was accompanied by improved cell survival of B12-CORM2-treated cells exposed to DOX, as assessed by Trypan blue exclusion (Table 5).

Molecule: CC(=O)N[C@@H](CS)C(=O)O [NAC, N-acetyl cysteine]
- inflammatory response to cytomix (NOS2, IL10 mRNA) (Hepa 1-6 cells [1]): not protective

Molecule: hemin
- MTT reduction (metabolic capacity) (Hepa 1-6 cells [2]): did not provide any protection against the cytomix-induced damage

Molecule: COC1=C(OC)C(=O)C(CCCCCCCCCC[P+](c2ccccc2)(c2ccccc2)c2ccccc2)=C(C)C1=O [MitoQ]
- effect on B12-CORM2-induced percentage of beating EB (E14 ESC embryoid bodies): the B12-CORM2 effect was blocked

Molecule: Cc1ccc(S(=O)(=O)/C=C/C#N)cc1 [BAY11]
- cytomix effect on NOS2 induction (Hepa 1-6 cells [1]): fully blocks the cytomix effect on NOS2 induction

Molecule: COc1cccc2c1C(=O)c1c(O)c3c(c(O)c1C2=O)C[C@@](O)(C(=O)CO)C[C@@H]3O[C@H]1C[C@H](N)[C@H](O)[C@H](C)O1 [DOX, Doxorubicin]
- Alpha actinin expression levels (% as compared to untreated cells) (H9c2 cells [3]): 57.1% (11)
- Citrate synthase expression levels (% as compared to untreated cells) (H9c2 cells [3]): 60% (12.3)
- Surviving cells (% as compared to untreated cells) (H9c2 cells [4]): 61% (9.9)
